Measurements taken from ChEMBL document CHEMBL3885881, “DrugMatrix”.

Species on record: Rattus norvegicus
Experiment: DrugMatrix - Regimen: Daily Repeat
Format: toxicity, organism-based, Sprague-Dawley
Parameters: regimen Daily Repeat, gender Male, age 6-8 weeks
Settings: in vivo, po, route oral GAVAGE, vehicle 100 % SALINE; for ABSOLUTE BASOPHIL / ABSOLUTE EOSINOPHIL / ABSOLUTE LYMPHOCYTE / ABSOLUTE MONOCYTE / ABSOLUTE SEGMENTED NEUTROPHIL / BASOPHIL / EOSINOPHIL / ERYTHROCYTE COUNT / HEMATOCRIT / HEMOGLOBIN / LEUKOCYTE COUNT / LYMPHOCYTE / MEAN CORPUSCULAR HEMOGLOBIN / MEAN CORPUSCULAR HEMOGLOBIN CONCENTRATION / MEAN CORPUSCULAR VOLUME / MONOCYTE / NEUTROPHIL / NUCLEATED RED BLOOD CELLS / PLATELET COUNT: tissue Blood; for ALANINE AMINOTRANSFERASE / ALBUMIN / ALKALINE PHOSPHATASE / ASPARTATE AMINOTRANSFERASE / BLOOD UREA NITROGEN / CARBON DIOXIDE / CHLORIDE / CHOLESTEROL / CREATINE PHOSPHOKINASE / CREATININE / GLUCOSE / LACTATE DEHYDROGENASE / LIPASE / PHOSPHORUS / POTASSIUM / SODIUM / TOTAL BILIRUBIN / TOTAL PROTEIN / URIC ACID: tissue Plasma
[1] = 0 mg/kg, 72 h, dose level Control, time 3 day
[2] = 0 mg/kg, […], dose level Control, time 7 day
[3] = 3000 mg/kg, 72 h, dose level Low, time 3 day

CCO [ALCOHOL]
ABSOLUTE BASOPHIL [1]: 0 CELLS/uL | ABSOLUTE EOSINOPHIL [1]: 66 CELLS/uL | ABSOLUTE LYMPHOCYTE [1]: 11922.83 CELLS/uL | ABSOLUTE MONOCYTE [1]: 401.5 CELLS/uL | ABSOLUTE SEGMENTED NEUTROPHIL [1]: 1526.33 CELLS/uL | BASOPHIL [1]: 0% | EOSINOPHIL [1]: 0.5% | ERYTHROCYTE COUNT [1]: 5.62 x10E6/uL | HEMATOCRIT [1]: 37.17% | HEMOGLOBIN [1]: 13.53 G/DL | LEUKOCYTE COUNT [1]: 13.92 x10E3/uL | LYMPHOCYTE [1]: 86.17% | MEAN CORPUSCULAR HEMOGLOBIN [1]: 24.07 pg | MEAN CORPUSCULAR HEMOGLOBIN CONCENTRATION [1]: 36.42 G/DL | MEAN CORPUSCULAR VOLUME [1]: 66.1 fL | MONOCYTE [1]: 3% | NEUTROPHIL [1]: 10.33% | NUCLEATED RED BLOOD CELLS [1]: 0 /100WBC | PLATELET COUNT [1]: 1107 x10E3/uL | ALANINE AMINOTRANSFERASE [1]: 45.33 u/L | ALBUMIN [1]: 4.3 G/DL | ALKALINE PHOSPHATASE [1]: 321.33 u/L | ASPARTATE AMINOTRANSFERASE [1]: 77.33 u/L | BLOOD UREA NITROGEN [1]: 14.33 mg/dL | CARBON DIOXIDE [1]: 32.33 mmol/L | CHLORIDE [1]: 99.67 MEQ/L | CHOLESTEROL [1]: 82.33 mg/dL | CREATINE PHOSPHOKINASE [1]: 205.5 u/L | CREATININE [1]: 0.19 mg/dL | GLUCOSE [1]: 150.83 mg/dL | LACTATE DEHYDROGENASE [1]: 88.17 u/L | LIPASE [1]: 10.83 u/L | PHOSPHORUS [1]: 10.9 mg/dL | POTASSIUM [1]: 5.83 MEQ/L | SODIUM [1]: 145.15 MEQ/L | TOTAL BILIRUBIN [1]: 0.12 mg/dL | TOTAL PROTEIN [1]: 6.22 G/DL | URIC ACID [1]: 1 mg/dL | ABSOLUTE BASOPHIL [2]: 0 CELLS/uL | ABSOLUTE EOSINOPHIL [2]: 22 CELLS/uL | ABSOLUTE LYMPHOCYTE [2]: 11105.17 CELLS/uL | ABSOLUTE MONOCYTE [2]: 258.17 CELLS/uL | ABSOLUTE SEGMENTED NEUTROPHIL [2]: 881.33 CELLS/uL | BASOPHIL [2]: 0% | EOSINOPHIL [2]: 0.17% | ERYTHROCYTE COUNT [2]: 5.29 x10E6/uL | HEMATOCRIT [2]: 34.03% | HEMOGLOBIN [2]: 13.67 G/DL | LEUKOCYTE COUNT [2]: 12.27 x10E3/uL | LYMPHOCYTE [2]: 90.83% | MEAN CORPUSCULAR HEMOGLOBIN [2]: 25.9 pg | MEAN CORPUSCULAR HEMOGLOBIN CONCENTRATION [2]: 40.18 G/DL | MEAN CORPUSCULAR VOLUME [2]: 64.42 fL | MONOCYTE [2]: 2.17% | NEUTROPHIL [2]: 6.83% | NUCLEATED RED BLOOD CELLS [2]: 0 /100WBC | PLATELET COUNT [2]: 1159.83 x10E3/uL | ALANINE AMINOTRANSFERASE [2]: 45.83 u/L | ALBUMIN [2]: 4.1 G/DL | ALKALINE PHOSPHATASE [2]: 240 u/L | ASPARTATE AMINOTRANSFERASE [2]: 88.67 u/L | BLOOD UREA NITROGEN [2]: 13.67 mg/dL | CARBON DIOXIDE [2]: 31.83 mmol/L | CHLORIDE [2]: 96.83 MEQ/L | CHOLESTEROL [2]: 71.17 mg/dL | CREATINE PHOSPHOKINASE [2]: 202.5 u/L | CREATININE [2]: 0.22 mg/dL | GLUCOSE [2]: 132.67 mg/dL | LACTATE DEHYDROGENASE [2]: 107.17 u/L | LIPASE [2]: 10.5 u/L | PHOSPHORUS [2]: 10.47 mg/dL | POTASSIUM [2]: 6.23 MEQ/L | SODIUM [2]: 140.73 MEQ/L | TOTAL BILIRUBIN [2]: 0.12 mg/dL | TOTAL PROTEIN [2]: 6.18 G/DL | URIC ACID [2]: 0.87 mg/dL | ABSOLUTE BASOPHIL [3]: 0 CELLS/uL | ABSOLUTE EOSINOPHIL [3]: 0 CELLS/uL | ABSOLUTE LYMPHOCYTE [3]: 9478 CELLS/uL | ABSOLUTE MONOCYTE [3]: 154.17 CELLS/uL | ABSOLUTE SEGMENTED NEUTROPHIL [3]: 701.17 CELLS/uL | BASOPHIL [3]: 0% | EOSINOPHIL [3]: 0% | ERYTHROCYTE COUNT [3]: 5.61 x10E6/uL | HEMATOCRIT [3]: 37.43% | HEMOGLOBIN [3]: 13.38 G/DL | LEUKOCYTE COUNT [3]: 10.33 x10E3/uL | LYMPHOCYTE [3]: 91.5% | MEAN CORPUSCULAR HEMOGLOBIN [3]: 23.87 pg | MEAN CORPUSCULAR HEMOGLOBIN CONCENTRATION [3]: 35.78 G/DL | MEAN CORPUSCULAR VOLUME [3]: 66.65 fL | MONOCYTE [3]: 1.5% | NEUTROPHIL [3]: 7% | NUCLEATED RED BLOOD CELLS [3]: 0 /100WBC | PLATELET COUNT [3]: 1014.67 x10E3/uL | ALANINE AMINOTRANSFERASE [3]: 55.33 u/L | ALBUMIN [3]: 4.22 G/DL | ALKALINE PHOSPHATASE [3]: 351.5 u/L | ASPARTATE AMINOTRANSFERASE [3]: 80.33 u/L | BLOOD UREA NITROGEN [3]: 10.17 mg/dL | CARBON DIOXIDE [3]: 30.17 mmol/L | CHLORIDE [3]: 99.8 MEQ/L | CHOLESTEROL [3]: 73.17 mg/dL | CREATINE PHOSPHOKINASE [3]: 216.33 u/L | CREATININE [3]: 0.24 mg/dL | GLUCOSE [3]: 152.67 mg/dL | LACTATE DEHYDROGENASE [3]: 102.83 u/L | LIPASE [3]: 8.17 u/L | PHOSPHORUS [3]: 10.45 mg/dL | POTASSIUM [3]: 5.55 MEQ/L | SODIUM [3]: 144.46 MEQ/L | TOTAL BILIRUBIN [3]: 0.1 mg/dL | TOTAL PROTEIN [3]: 6.13 G/DL | URIC ACID [3]: 0.87 mg/dL
